Measurements from ChEMBL document CHEMBL5576041, “13-oxyingenol dodecanoate derivatives induce mitophagy and ferroptosis through targeting TMBIM6 as potential anti-NSCLC agents” (Eur J Med Chem, 2024).
pIC50: −log10 of the molar value. Calls of active or inactive are those of the source. No cut-off for these calls is given here.

Assays:
[1] = Selectivity index, ratio of IC50 for cytotoxicity against human BEAS-2B cells to IC50 for antiproliferative activity against human A549 cells; assay type: toxicity, cell-based; details: read-out: Ratio IC50
[2] = biological target: Bax inhibitor 1 (Homo sapiens) (UniProt P55061); experiment: Thermal stabilization of TMBIM6 in human A549 cells at 54 to 60 degreeC at 100 uM incubated for 2 hrs by CETSA based Western blot analysis; assay type: cell-based
Cell membrane [3] = experiment: Induction of mitochondrial membrane depolarization in human A549 cells assessed as increases in mitochondrial Ca2+ concentration incubated for 8 hrs by Rhod-2 AM probe based flow cytometric analysis; assay type: cell membranes
Cell membrane [4] = experiment: Induction of mitochondrial membrane potential loss in human A549 cells at 10 to 20 uM incubated for 6 hrs by JC-1 staining based flow cytometric analysis; assay type: cell membranes; details: dose 10-20 µM
Cell membrane [5] = experiment: Induction of mitochondrial membrane depolarization in human A549 cells assessed as increases in mitochondrial Ca2+ concentration by Rhod-2 AM probe based flow cytometric analysis; assay type: cell membranes
A549 [6] = experiment: Induction of autophagy in human A549 cells assessed as effect on LC3II protein expression at 10 to 20 uM incubated for 24 hrs by Western blot analysis; assay type: functional, cell-based; details: dose 10-20 µM
A549 [7] = experiment: Induction of ferroptosis in human A549 cells assessed as increase in malondialdehyde content; assay type: functional, cell-based
A549 [8] = experiment: Activation of Nrf2-Keap1-HO-1 signaling pathway in human A549 cells assessed as increase in oxidative stress by measuring lipid ROS level at 10 to 20 uM by Western blot analysis; assay type: cell-based; details: filed as activator, dose 10-20 µM
[9] = biological target: Bax inhibitor 1 (Homo sapiens) (UniProt P55061); experiment: Thermal stabilization of TMBIM6 in human A549 cells at 46 to 60 degreeC at 100 uM incubated for 2 hrs by CETSA based Western blot analysis; assay type: cell-based
NCI-H460 = experiment: Antiproliferative activity against human NCI-H460 cells assessed as inhibition of cell growth incubated for 24 to 72 hrs by CCK8 assay; assay type: functional, cell-based
A549 [10] = experiment: Induction of ferroptosis in human A549 cells assessed as increase in […] accumulation; assay type: functional, cell-based
HepG2 = experiment: Antiproliferative activity against human HepG2 cells assessed as inhibition of cell growth incubated for 24 to 72 hrs by CCK8 assay; assay type: functional, cell-based
A549 [11] = experiment: Downregulation of TMBIM6 protein expression in human A549 cells at 10 uM by Western blot analysis; assay type: functional, cell-based
[12] = biological target: T1, Cystine/glutamate transporter (Homo sapiens) (UniProt Q9UPY5); experiment: Inhibition of SLC7A11 in human […] cells at 10 to 20 uM by Western blot analysis; assay type: cell-based; details: A549, dose 10-20 µM
T1 sequence (whole entry): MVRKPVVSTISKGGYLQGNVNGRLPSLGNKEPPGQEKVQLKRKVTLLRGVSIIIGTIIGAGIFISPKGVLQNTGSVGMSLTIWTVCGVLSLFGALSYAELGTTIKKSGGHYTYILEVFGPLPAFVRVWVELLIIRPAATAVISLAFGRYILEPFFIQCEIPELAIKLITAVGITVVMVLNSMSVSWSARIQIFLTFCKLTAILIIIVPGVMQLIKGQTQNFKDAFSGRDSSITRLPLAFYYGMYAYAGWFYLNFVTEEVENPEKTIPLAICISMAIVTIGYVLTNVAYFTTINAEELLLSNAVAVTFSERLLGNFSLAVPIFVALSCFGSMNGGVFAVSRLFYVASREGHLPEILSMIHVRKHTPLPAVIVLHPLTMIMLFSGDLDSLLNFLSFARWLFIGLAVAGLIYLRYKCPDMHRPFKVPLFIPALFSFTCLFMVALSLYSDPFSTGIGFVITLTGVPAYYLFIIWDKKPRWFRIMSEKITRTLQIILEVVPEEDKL

[13] = biological target: Non-selective voltage-gated ion channel VDAC1 (Homo sapiens) (UniProt P21796); experiment: Activation of VDAC1 channel in human A549 cells assessed as increase in mitochondrial Ca2+ endocytosis by staining based analysis; assay type: cell-based; details: filed as opener
A549 [14] = experiment: Antiproliferative activity against human A549 cells assessed as inhibition of cell growth incubated for 24 to 72 hrs by CCK8 assay; assay type: functional, cell-based
A549 [15] = experiment: Induction of autophagy in human A549 cells assessed as effect on PINK1 protein expression at 10 to 20 uM incubated for 24 hrs by Western blot analysis; assay type: functional, cell-based; details: dose 10-20 µM
A549 [16] = experiment: Increase in Ca2+ level in human A549 cell cytoplasm at 5 to 20 uM incubated for 8 hrs by confocal photographic analysis; assay type: functional, cell-based; details: dose 5-20 µM
A549 [17] = experiment: Induction of ferroptosis in human A549 cells assessed as reduction in GSH content incubated for 2 to 12 hrs; assay type: functional, cell-based; details: time 2-12 hrs
A549 [18] = experiment: Induction of TMBIM6-VDAC1 protein-protein interaction in human A549 cells at 20 uM by immunoprecipitation analysis; assay type: cell-based; details: filed as activator
[19] = biological target: Bax inhibitor 1 (Homo sapiens) (UniProt P55061); experiment: Binding affinity to TMBIM6 at Met-68 residue in human A549 cells by high-resolution mass spectrometric analysis; assay type: cell-based
A549 [20] = experiment: Antiproliferative activity against human A549 cells assessed as inhibition of cell growth incubated for 24 hrs by CCK8 assay; assay type: functional, cell-based; details: A549, 24 h
[21] = biological target: Bax inhibitor 1 (Homo sapiens) (UniProt P55061); experiment: Competitive binding affinity to TMBIM6 in human A549 cells in presence of 2 to 6 fold of 13-oxyingenol dodecanoate by immunofluorescence analysis; assay type: cell-based
[22] = biological target: Bax inhibitor 1 (Homo sapiens) (UniProt P55061); experiment: Competitive binding affinity to TMBIM6 in human A549 cells assessed as reduction in 13-oxyingenol dodecanoate binding to protein at 4 uM in presence of 6 fold 13-oxyingenol dodecanoate by pull down Western blot analysis; assay type: cell-based
[23] = biological target: Bax inhibitor 1 (Homo sapiens) (UniProt P55061); experiment: Binding affinity to TMBIM6 in human A549 cells assessed as increase in co-localization in cytoplasm at 4 uM by immunofluorescence analysis; assay type: cell-based
[24] = biological target: Bax inhibitor 1 (Homo sapiens) (UniProt P55061); experiment: Binding affinity to TMBIM6 in human A549 cells at 4 uM by pull down Western blot analysis; assay type: cell-based
A549 [25] = experiment: Antiproliferative activity against human A549 cells assessed as inhibition of cell growth incubated for 48 hrs by CCK8 assay; assay type: functional, cell-based; details: A549, 48 h
A549 [26] = experiment: Induction of ROS accumulation in human A549 cells incubated for 24 hrs by DCFH/C11-BODIPY probe based flow cytometric analysis; assay type: functional, cell-based; details: dose 5-20 µM
A549 [27] = experiment: Induction of lipid ROS accumulation in human A549 cells at 20 uM incubated for 24 hrs in presence of NAC by DCFH/C11-BODIPY probe based flow cytometric analysis; assay type: functional, cell-based
[28] = biological target: T1, Cystine/glutamate transporter (Homo sapiens); experiment: Inhibition of SLC7A11 in human […] cells at 5 to 20 uM by Western blot analysis; assay type: cell-based; details: A549, dose 5-20 µM
A549 [29] = experiment: Induction of ROS accumulation in human A549 cells at 20 uM by DCFH/C11-BODIPY probe based flow cytometric analysis; assay type: functional, cell-based; details: time 2-24 hrs, TDE = time-dependent effect
[30] = biological target: Bax inhibitor 1 (Homo sapiens) (UniProt P55061); experiment: Binding affinity to TMBIM6 in human A549 cells by cluster analysis; assay type: cell-based
A549 [31] = experiment: Induction of lipid ROS accumulation in human A549 cells at 20 uM incubated for 24 hrs in presence of Lip-1 by DCFH/C11-BODIPY probe based flow cytometric analysis; assay type: functional, cell-based
A549 [32] = experiment: Induction of ferroptosis in human A549 cells assessed as increase in malondialdehyde content at 5 to 20 uM; assay type: functional, cell-based; details: dose 5-20 µM
A549 [33] = experiment: Induction of autophagy in human A549 cells assessed as effect on LC3II protein expression upto 20 uM incubated for 24 hrs by Western blot analysis; assay type: functional, cell-based
A549 [34] = experiment: Stabilization of […] in human A549 cells assessed as reduction in polyubiquitination at 20 uM in presence of MG132 by immunoprecipitation analysis; assay type: cell-based
A549 [35] = experiment: Induction of autophagy in human A549 cells assessed as effect on PINK1 protein expression upto 20 uM incubated for 24 hrs by Western blot analysis; assay type: functional, cell-based
A549 [36] = experiment: Induction of autophagy in human A549 cells incubated for 12 hrs by MDC staining based flow cytometric analysis; assay type: functional, cell-based
A549 [37] = experiment: Activation of Nrf2-Keap1-HO-1 signaling pathway in human A549 cells assessed as increase in oxidative stress by measuring lipid ROS level at 5 to 20 uM by Western blot analysis; assay type: cell-based; details: filed as activator, dose 5-20 µM
A549 [38] = experiment: Induction of lipid ROS accumulation in human A549 cells at 20 uM incubated for 24 hrs in presence of Fer-1 by DCFH/C11-BODIPY probe based flow cytometric analysis; assay type: functional, cell-based
A549 [39] = experiment: Induction of lipid ROS accumulation in human A549 cells at 20 uM incubated for 24 hrs in presence of DFO by DCFH/C11-BODIPY probe based flow cytometric analysis; assay type: functional, cell-based

Bax inhibitor 1 (Homo sapiens), sequence (P55061 whole entry): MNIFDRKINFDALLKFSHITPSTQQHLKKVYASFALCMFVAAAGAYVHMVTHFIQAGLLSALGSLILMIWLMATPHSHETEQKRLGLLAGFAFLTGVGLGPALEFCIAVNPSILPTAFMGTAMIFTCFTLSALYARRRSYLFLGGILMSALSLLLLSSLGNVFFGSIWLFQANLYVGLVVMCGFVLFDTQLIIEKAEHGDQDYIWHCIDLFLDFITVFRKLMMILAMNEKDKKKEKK
Non-selective voltage-gated ion channel VDAC1 (Homo sapiens), sequence (P21796 whole entry): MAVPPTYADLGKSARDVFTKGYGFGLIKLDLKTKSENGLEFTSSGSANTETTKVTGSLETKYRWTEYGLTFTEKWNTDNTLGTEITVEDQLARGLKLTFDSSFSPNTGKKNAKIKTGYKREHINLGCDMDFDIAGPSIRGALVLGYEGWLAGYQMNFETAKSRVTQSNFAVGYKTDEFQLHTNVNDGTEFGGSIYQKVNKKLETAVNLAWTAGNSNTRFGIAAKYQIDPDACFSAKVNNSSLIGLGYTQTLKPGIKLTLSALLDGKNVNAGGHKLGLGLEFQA

SMILES | selectivity ratio [1] | Activity [2] | Activity (Cell membrane [3]) | Activity (Cell membrane [4]) | Activity (Cell membrane [5]) | Activity (A549 [6]) | Activity (A549 [7]) | Activity (A549 [8]) | Activity [9] | pIC50 (NCI-H460) | Activity (A549 [10]) | pIC50 (HepG2) | Activity (A549 [11]) | inhibition [12] | Activity [13] | pIC50 (A549 [14]) | Activity (A549 [15]) | Activity (A549 [16]) | Activity (A549 [17]) | Activity (A549 [18]) | also measured
CCCCCCCCCCCC(=O)O[C@@]12C[C@@H](C)[C@]34C=C(C)[C@H](OC(=O)c5ccc([N+](=O)[O-])cc5)[C@@]3(O)[C@H](O)C(COC(=O)c3ccc([N+](=O)[O-])cc3)=C[C@H](C4=O)[C@@H]1C2(C)C | 8.2 | Active | Active | Active | Active | Active | Active | Active | Active | 6.00 | Active | < 4.30 | Active | Active | Active | 5.21 | Active | Active | Active | Active | 
CCCCCCCCCCCC(=O)O[C@@]12C[C@@H](C)[C@]34C=C(C)[C@H](OC(=O)NCCC)[C@@]3(O)[C@H](O)C(CO)=C[C@H](C4=O)[C@@H]1C2(C)C | 10.6 | Active | Active | Active | Active | Active | Active | Active | Active | 5.07 | Active | 4.67 | Active | Active | Active | 5.33 | Active | Active | Active | Active | 
CCCCCCCCCCCC(=O)O[C@@]12C[C@@H](C)[C@]34C=C(C)[C@H](OC(=O)c5ccc(F)cc5)[C@@]3(O)[C@H](O)C(CO)=C[C@H](C4=O)[C@@H]1C2(C)C | 19.8 | Active | Active | Active | Active | Active | Active | Active | Active | 4.68 | Active | 4.68 | Active | Active | Active | 5.59 | Active | Active | Active | Active | 
C#CCCC1(CCNC(=O)O[C@H]2C(C)=C[C@]34C(=O)[C@@H](C=C(CO)[C@@H](O)[C@]23O)[C@@H]2C(C)(C)[C@]2(OC(=O)CCCCCCCCCCC)C[C@H]4C)N=N1 |  |  |  |  |  |  |  |  |  |  |  |  |  |  |  |  |  |  |  |  | Activity [19]: Active; pIC50 (A549 [20]): 5.09; Activity [21]: Active; Activity [22]: Active; Activity [23]: Active; Activity [24]: Active; pIC50 (A549 [25]): 4.86
CCCCCCCCCCCC(=O)O[C@@]12C[C@@H](C)[C@]34C=C(C)[C@H](O)[C@@]3(O)[C@H](O)C(CO)=C[C@H](C4=O)[C@@H]1C2(C)C | 11.1 | Active | Active |  | Active |  |  |  | Active | 5.15 | Active | 5.28 | Active |  | Active | 5.41 |  | Active | Active | Active | Activity (A549 [26]): Dose-Dependent Effect; Activity (A549 [27]): inactive; inhibition [28]: Active; Activity (A549 [29]): Tde; Activity [30]: Active; Activity (A549 [31]): inactive; Activity (A549 [32]): Active; Activity (A549 [33]): Active; pIC50 (A549 [20]): 5.06; Activity (A549 [34]): Active; Activity (A549 [35]): Active; Activity (A549 [36]): Dose-Dependent Effect; Activity (A549 [37]): Active; pIC50 (A549 [25]): 4.76; Activity (A549 [38]): inactive; Activity (A549 [39]): inactive
